The record followed here is patent US20090304692A1, “TRIAZINE COMPOUNDS AS PI3 KINASE AND MTOR INHIBITORS” (Wyeth, priority 2008, published 2009).

In experiment [1] the test system is human breast MDA-MB-361 tumor cell line. Put plainly: In vitro cell culture growth assay (MTS), MDA-MB-361. Conditions: read-out: IC50 MDA-MB-361. In kind it is cell-based.
For experiment [2], the system named is human prostate PC3-mm2 tumor cell line. Put plainly: In vitro cell culture growth assay (MTS), PC3-mm2. The conditions noted are these: read-out: IC50 PC3-mm2. Type of experiment: cell-based.
Another experiment concerns the target PI3K-γ (Homo sapiens, UniProt P48736). As to the kind of experiment: PI3K-gamma fluorescence polarization assay. Conditions: read-out: IC50 PI3Kγ. On the technique in general: In fluorescence polarisation assays a small probe gives low polarisation when free and higher when bound to something large.
The target of the next experiment is Human mTOR (FLAG-TOR) (Homo sapiens, UniProt P42345). Put plainly: mTOR kinase assay (DELFIA format, purified enzyme). Type of experiment: biochemical. Conditions: read-out: IC50 mTOR.
In a further experiment the target is PI3K-α (Homo sapiens, UniProt P42336). As to the kind of experiment: PI3K-alpha fluorescence polarization assay. The conditions noted are these: read-out: IC50 PI3Kα.
[3] abbreviates: MTS cell growth assay, three days after drug treatment.
Setting [4] is: MTS cell growth assay, three days after drug treatment, MDA-MB-361 cells.
Setting [5] is: MTS cell growth assay, three days after drug treatment, PC3-mm2 cells.
The mark [6] stands for this setting: Homo sapiens, PC3MM2, 72 h, MTS cell growth assay, three days after drug treatment.
Where [7] appears, read: Homo sapiens, PC3MM2, 72 h, PC3-mm2 cells, MTS, three days after drug treatment.

Like-named read-outs stand apart in the source and are kept apart here.

Sequence of PI3K-γ (P48736 whole entry, species assumed): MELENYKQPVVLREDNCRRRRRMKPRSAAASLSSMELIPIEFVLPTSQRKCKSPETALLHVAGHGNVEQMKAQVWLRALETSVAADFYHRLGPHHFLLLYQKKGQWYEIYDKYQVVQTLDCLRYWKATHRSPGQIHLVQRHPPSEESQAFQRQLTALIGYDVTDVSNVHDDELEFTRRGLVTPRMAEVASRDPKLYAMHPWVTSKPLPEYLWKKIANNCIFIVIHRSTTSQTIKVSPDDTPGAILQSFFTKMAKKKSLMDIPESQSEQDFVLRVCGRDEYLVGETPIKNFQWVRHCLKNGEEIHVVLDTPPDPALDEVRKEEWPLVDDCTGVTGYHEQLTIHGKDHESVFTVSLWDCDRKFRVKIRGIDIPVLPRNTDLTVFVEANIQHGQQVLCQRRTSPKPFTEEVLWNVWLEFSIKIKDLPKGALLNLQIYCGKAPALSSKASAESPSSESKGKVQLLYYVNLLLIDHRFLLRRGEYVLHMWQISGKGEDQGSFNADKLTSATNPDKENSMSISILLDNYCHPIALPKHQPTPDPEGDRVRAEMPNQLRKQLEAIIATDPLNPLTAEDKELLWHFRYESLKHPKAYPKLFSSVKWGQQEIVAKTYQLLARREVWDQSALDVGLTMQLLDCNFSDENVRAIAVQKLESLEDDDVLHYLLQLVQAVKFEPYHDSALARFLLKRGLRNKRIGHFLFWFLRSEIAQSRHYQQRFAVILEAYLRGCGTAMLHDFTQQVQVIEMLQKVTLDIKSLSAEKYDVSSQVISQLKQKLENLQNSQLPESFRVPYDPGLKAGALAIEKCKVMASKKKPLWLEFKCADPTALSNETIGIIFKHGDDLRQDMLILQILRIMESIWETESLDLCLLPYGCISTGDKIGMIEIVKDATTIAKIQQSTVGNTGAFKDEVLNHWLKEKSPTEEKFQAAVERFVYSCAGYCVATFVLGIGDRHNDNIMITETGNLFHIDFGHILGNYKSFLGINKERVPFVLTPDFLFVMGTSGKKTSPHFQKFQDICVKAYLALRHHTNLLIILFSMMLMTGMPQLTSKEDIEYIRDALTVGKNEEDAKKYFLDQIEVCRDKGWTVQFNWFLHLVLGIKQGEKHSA
Sequence of Human mTOR (FLAG-TOR) (P42345 1360-2549 limits assumed): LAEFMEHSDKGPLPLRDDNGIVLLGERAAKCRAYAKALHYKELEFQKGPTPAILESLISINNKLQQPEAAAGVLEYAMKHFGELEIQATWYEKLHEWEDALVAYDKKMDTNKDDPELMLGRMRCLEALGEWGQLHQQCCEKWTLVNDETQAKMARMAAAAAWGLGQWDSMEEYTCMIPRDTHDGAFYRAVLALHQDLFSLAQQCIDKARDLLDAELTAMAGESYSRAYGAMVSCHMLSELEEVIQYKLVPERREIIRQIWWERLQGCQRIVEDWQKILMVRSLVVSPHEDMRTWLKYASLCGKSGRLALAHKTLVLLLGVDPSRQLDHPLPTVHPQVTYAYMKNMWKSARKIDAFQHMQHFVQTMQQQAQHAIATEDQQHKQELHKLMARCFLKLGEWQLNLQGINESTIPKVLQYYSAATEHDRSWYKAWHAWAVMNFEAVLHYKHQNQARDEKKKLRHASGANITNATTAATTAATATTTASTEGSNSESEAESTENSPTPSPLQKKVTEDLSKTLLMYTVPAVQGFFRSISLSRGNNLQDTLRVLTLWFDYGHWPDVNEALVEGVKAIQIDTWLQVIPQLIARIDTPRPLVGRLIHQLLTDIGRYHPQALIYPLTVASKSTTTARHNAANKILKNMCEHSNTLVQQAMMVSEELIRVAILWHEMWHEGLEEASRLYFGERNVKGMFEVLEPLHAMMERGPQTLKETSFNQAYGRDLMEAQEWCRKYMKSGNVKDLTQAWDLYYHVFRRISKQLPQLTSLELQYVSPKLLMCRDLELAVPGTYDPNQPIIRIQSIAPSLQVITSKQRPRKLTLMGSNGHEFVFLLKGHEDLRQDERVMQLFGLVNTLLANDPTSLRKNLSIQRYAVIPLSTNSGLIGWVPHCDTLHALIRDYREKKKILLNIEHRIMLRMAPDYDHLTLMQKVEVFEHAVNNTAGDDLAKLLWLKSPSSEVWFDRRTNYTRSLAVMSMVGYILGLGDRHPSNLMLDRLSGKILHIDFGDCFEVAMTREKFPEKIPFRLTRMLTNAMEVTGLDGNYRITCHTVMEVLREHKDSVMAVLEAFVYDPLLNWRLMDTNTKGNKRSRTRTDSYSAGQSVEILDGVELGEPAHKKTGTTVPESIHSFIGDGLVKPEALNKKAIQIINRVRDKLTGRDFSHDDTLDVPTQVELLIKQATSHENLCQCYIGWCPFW
Sequence of PI3K-α (P42336 whole entry, species assumed): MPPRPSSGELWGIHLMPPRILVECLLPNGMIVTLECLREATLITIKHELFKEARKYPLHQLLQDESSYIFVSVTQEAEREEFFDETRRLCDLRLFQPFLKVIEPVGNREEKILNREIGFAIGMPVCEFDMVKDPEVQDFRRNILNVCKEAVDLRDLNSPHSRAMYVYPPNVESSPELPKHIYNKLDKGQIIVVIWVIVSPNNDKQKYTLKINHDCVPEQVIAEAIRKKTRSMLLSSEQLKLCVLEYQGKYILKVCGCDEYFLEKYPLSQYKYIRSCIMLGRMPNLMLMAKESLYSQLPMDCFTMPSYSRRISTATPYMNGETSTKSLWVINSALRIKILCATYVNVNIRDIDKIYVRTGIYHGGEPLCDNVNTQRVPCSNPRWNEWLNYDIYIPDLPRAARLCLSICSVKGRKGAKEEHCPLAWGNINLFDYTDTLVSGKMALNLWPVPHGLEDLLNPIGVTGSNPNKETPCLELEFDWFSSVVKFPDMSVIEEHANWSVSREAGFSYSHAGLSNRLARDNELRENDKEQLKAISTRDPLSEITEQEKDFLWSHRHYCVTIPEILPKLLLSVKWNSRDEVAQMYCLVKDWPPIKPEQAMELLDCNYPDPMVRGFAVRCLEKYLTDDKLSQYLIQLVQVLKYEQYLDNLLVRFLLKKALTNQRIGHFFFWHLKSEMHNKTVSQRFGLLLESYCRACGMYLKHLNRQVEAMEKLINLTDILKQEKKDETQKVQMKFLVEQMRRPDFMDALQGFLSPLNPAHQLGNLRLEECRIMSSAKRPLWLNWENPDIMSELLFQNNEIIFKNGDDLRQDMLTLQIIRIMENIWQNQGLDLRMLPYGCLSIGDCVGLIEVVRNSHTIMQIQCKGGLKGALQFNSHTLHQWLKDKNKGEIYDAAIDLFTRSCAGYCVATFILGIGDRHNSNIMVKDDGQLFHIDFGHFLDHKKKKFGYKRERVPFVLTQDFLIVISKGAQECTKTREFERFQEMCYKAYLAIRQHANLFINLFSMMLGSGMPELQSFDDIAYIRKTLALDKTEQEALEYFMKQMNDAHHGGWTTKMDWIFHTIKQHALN
Sequence of PI3K-α (P27986 whole entry partner, species assumed): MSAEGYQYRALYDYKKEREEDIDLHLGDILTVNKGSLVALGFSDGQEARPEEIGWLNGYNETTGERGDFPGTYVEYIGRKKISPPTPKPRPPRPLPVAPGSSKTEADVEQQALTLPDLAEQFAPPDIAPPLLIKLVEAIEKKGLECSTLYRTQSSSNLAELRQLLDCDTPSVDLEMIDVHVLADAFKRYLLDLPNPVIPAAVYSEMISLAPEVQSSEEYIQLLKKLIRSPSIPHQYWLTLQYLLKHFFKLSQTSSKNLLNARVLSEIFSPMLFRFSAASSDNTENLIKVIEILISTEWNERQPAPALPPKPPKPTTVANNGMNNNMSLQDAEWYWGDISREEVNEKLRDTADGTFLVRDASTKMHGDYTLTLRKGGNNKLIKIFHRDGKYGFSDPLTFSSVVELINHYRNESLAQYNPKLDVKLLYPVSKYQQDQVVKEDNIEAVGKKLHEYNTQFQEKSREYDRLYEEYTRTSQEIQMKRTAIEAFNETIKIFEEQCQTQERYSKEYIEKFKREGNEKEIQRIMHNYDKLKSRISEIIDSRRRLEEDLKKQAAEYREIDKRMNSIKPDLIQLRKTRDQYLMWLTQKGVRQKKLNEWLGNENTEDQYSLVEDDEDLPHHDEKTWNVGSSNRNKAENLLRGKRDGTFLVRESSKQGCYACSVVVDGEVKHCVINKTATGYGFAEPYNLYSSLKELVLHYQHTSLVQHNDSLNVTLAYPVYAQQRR

“1-(4-(4,6-dimorpholino-1,3,5-triazin-2-yl)phenyl)-3-(4-(2-(pyridin-2-yl)acetyl)phenyl)urea [Example 78]”: the figures for the IC50 (in experiment [1] (setting [3]); in experiment [2] (setting [3]); on PI3K-γ) were 0.068 µM, 0.031 µM and 0.023 µM, respectively.

With “1-(4-{[4-(dimethylamino)piperidin-1-yl]carbonyl}phenyl)-3-[4-(4-morpholin-4-yl-6-phenyl-1,3,5-triazin-2-yl)phenyl]urea [Example 544]”, the IC50 in experiment [1] (setting [4]) was 0.058 µM; at Human mTOR (FLAG-TOR) it was 0.017 µM; at PI3K-γ, 0.0205 µM; on PI3K-α it was 0.0035 µM.

As for “1-(4-{[(3S)-3-(dimethylamino)pyrrolidin-1-yl]carbonyl}phenyl)-3-{4-[4-morpholin- [Example 517]”, the IC50 on Human mTOR (FLAG-TOR) came to 0.00106 µM; in experiment [2] (setting [5]), 0.007 µM; at PI3K-γ it was 0.0185 µM; at PI3K-α, 0.0034 µM.

Take “4-{[(4-{4-morpholin-4-yl-6-[(3S)-tetrahydrofuran-3-yloxy]-1,3,5-triazin-2-yl}phenyl)carbamoyl]amino}-N-(2-pyrrolidin-1-ylethyl)benzamide [Example 521]”: the IC50 in experiment [1] (setting [4]) amounted to 0.008 µM; in experiment [2] (setting [5]), 0.027 µM; at PI3K-α, 0.0014 µM.

In the case of `O=C(Nc1ccncc1)Nc1ccc(-c2nc(N3CCCCC3)nc(N3CC4CCC(C3)O4)n2)cc1` [Example 79, 1-(4-(4-(8-oxa-3-azabicyclo[3.2.1]octan-3-yl)-6-(piperidin-1-yl)-1,3,5-triazin-2-yl)phenyl)-3-(pyridin-4-yl)urea], the concentration for half-maximal inhibition (IC50) came to 0.0051 µM on Human mTOR (FLAG-TOR), 0.32 µM in experiment [2] (setting [6]), 0.193 µM on PI3K-γ and 0.773 µM at PI3K-α.

Take `O=C(Nc1ccncc1)Nc1ccc(-c2nc(N3CCCC3)nc(N3CC4CCC(C3)O4)n2)cc1` [Example 80, 1-(4-(4-(8-oxa-3-azabicyclo[3.2.1]octan-3-yl)-6-(pyrrolidin-1-yl)-1,3,5-triazin-2-yl)phenyl)-3-(pyridin-4-yl)urea]: the IC50 on Human mTOR (FLAG-TOR) was determined as 0.00715 µM; in experiment [2] (setting [6]), 0.32 µM; on PI3K-γ it was 2.12 µM; at PI3K-α it was 0.851 µM.

For `O=C(Nc1ccc(C(=O)NCCN2CCCCC2)cc1)Nc1ccc(-c2nc(N3CCOCC3)nc(N3CCOCC3)n2)cc1` [Example 151, 4-({[4-(4,6-dimorpholin-4-yl-1,3,5-triazin-2-yl)phenyl]carbamoyl}amino)-N-(2-piperidin-1-ylethyl)benzamide], the IC50 at Human mTOR (FLAG-TOR) came out at 0.007 µM; in experiment [2] (setting [6]), 0.014 µM; on PI3K-γ, 8.12 µM; on PI3K-α, 0.0006 µM.

With `CCCCc1nc(-c2ccc(NC(=O)Nc3ccc(C(=O)N(C)CCN(C)C)cc3)cc2)nc(N2CCOCC2)n1` [Example 198, 4-({[4-(4-butyl-6-morpholin-4-yl-1,3,5-triazin-2-yl)phenyl]carbamoyl}amino)-N-[2-(dimethylamino)ethyl]-N-methylbenzamide], the IC50 came out at 0.002 µM on Human mTOR (FLAG-TOR), 0.043 µM in experiment [2] (setting [6]), 0.033 µM on PI3K-γ and 0.002 µM at PI3K-α.

For `CNCCN(C)C(=O)c1ccc(NC(=O)Nc2ccc(-c3nc(OC)nc(N4CCOCC4)n3)cc2)cc1` [Example 245, 4-({[4-(4-methoxy-6-morpholin-4-yl-1,3,5-triazin-2-yl)phenyl]carbamoyl}amino)-N-methyl-N-[2-(methylamino)ethyl]benzamide], the IC50 in experiment [1] (Homo sapiens, MDA-MB-361, 72 h) was 0.11 µM; in experiment [2] (Homo sapiens, PC3MM2, 72 h) it was 0.374 µM; on PI3K-α, 0.001 µM; on PI3K-α (listed as 722), 0.0008 µM.

Turning to `COc1nc(-c2ccc(NC(=O)Nc3ccc(C(=O)N4CCN(C)CC4)cc3)cc2)nc(N2CCOCC2)n1` [Example 246, 1-[4-(4-methoxy-6-morpholin-4-yl-1,3,5-triazin-2-yl)phenyl]-3-{4-[(4-methylpiperazin-1-yl)carbonyl]phenyl}urea], the 50% inhibitory concentration (IC50) in experiment [1] (Homo sapiens, MDA-MB-361, 72 h) is 0.035 µM; in experiment [2] (Homo sapiens, PC3MM2, 72 h) it was 0.091 µM.

Take `COc1nc(-c2ccc(NC(=O)Nc3ccc(C(=O)N4CCNC(C)(C)C4)cc3)cc2)nc(N2CCOCC2)n1` [Example 247, 1-{4-[(3,3-dimethylpiperazin-1-yl)carbonyl]phenyl}-3-[4-(4-methoxy-6-morpholin-4-yl-1,3,5-triazin-2-yl)phenyl]urea]: the IC50 in experiment [1] (Homo sapiens, MDA-MB-361, 72 h) amounted to 0.03 µM; in experiment [2] (Homo sapiens, PC3MM2, 72 h), 0.111 µM; on PI3K-α it was 0.002 µM; on PI3K-α (listed as 724) it was 0.0015 µM.

For the molecule `COc1nc(-c2ccc(NC(=O)Nc3ccc(C(=O)NCCN4CCCCC4)cc3)cc2)nc(N2CCOCC2)n1` [Example 248, 4-({[4-(4-methoxy-6-morpholin-4-yl-1,3,5-triazin-2-yl)phenyl]carbamoyl}amino)-N-(2-piperidin-1-ylethyl)benzamide], the IC50 in experiment [1] (Homo sapiens, MDA-MB-361, 72 h) was less than 0.031 µM; in experiment [2] (Homo sapiens, PC3MM2, 72 h), 0.069 µM; on PI3K-α, 0.002 µM.

As to `CCc1nc(-c2ccc(NC(=O)Nc3ccc(C(=O)Nc4ccc(N5CCN(C)CC5)cc4)cc3)cc2)nc(N2CCOCC2)n1` [Example 251, 4-({[4-(4-ethyl-6-morpholin-4-yl-1,3,5-triazin-2-yl)phenyl]carbamoyl}amino)-N-[4-(4-methylpiperazin-1-yl)phenyl]benzamide], the IC50 turned out to be 0.006 µM at Human mTOR (FLAG-TOR), 0.065 µM in experiment [2] (setting [6]), 0.021 µM at PI3K-γ and 0.002 µM at PI3K-α.

For the molecule `CCCCc1nc(-c2ccc(NC(=O)Nc3ccc(C(=O)Nc4ccc(OCCN(C)C)cc4)cc3)cc2)nc(N2CCOCC2)n1` [Example 269, 4-({[4-(4-butyl-6-morpholin-4-yl-1,3,5-triazin-2-yl)phenyl]carbamoyl}amino)-N-{4-[2-(dimethylamino)ethoxy]phenyl}benzamide], the IC50 is 0.08 µM at Human mTOR (FLAG-TOR), 0.144 µM in experiment [2] (setting [6]), 0.14 µM on PI3K-γ and 0.006 µM on PI3K-α.

For `CC(C)c1nc(-c2ccc(NC(=O)Nc3ccc(C(=O)NC4CN(C)C4)cc3)cc2)nc(N2CCOCC2)n1` [Example 307, N-(1-methylazetidin-3-yl)-4-[({4-[4-(1-methylethyl)-6-morpholin-4-yl-1,3,5-triazin-2-yl]phenyl}carbamoyl)amino]benzamide], the IC50 was 0.0028 µM on Human mTOR (FLAG-TOR), 0.362 µM in experiment [2] (setting [6]), 0.03 µM on PI3K-γ and 0.003 µM at PI3K-α.

Take `CC(C)Cc1nc(-c2ccc(NC(=O)Nc3ccc(C(=O)N4CCC(N(C)C)CC4)cc3)cc2)nc(N2CCOCC2)n1` [Example 323, 1-(4-{[4-(dimethylamino)piperidin-1-yl]carbonyl}phenyl)-3-{4-[4-(2-methylpropyl)-6-morpholin-4-yl-1,3,5-triazin-2-yl]phenyl}urea]: the IC50 at Human mTOR (FLAG-TOR) was found to be 0.007 µM; in experiment [2] (setting [6]), 0.077 µM; on PI3K-γ, 0.032 µM; on PI3K-α, 0.0029 µM.

Consider `CN(C)CCN(C)C(=O)Nc1ccc(NC(=O)Nc2ccc(-c3nc(N4CCOCC4)nc(N4CCOCC4)n3)cc2)cc1` [Example 500, 1-[2-(dimethylamino)ethyl]-3-[4-({[4-(4,6-dimorpholin-4-yl-1,3,5-triazin-2-yl)phenyl]carbamoyl}amino)phenyl]-1-methylurea], for which the 50% inhibitory concentration (IC50) in experiment [1] (Homo sapiens, 72 h, MTS cell growth assay, three days after drug treatment, MDA-MB-361 cells) amounted to 0.001 µM; on Human mTOR (FLAG-TOR) it was 0.00109 µM; on PI3K-γ, 0.01 µM; at PI3K-α, 0.0004 µM.

For the molecule `O=C(Nc1ccc(C(=O)N2CCC(N3CCCCC3)CC2)cc1)Nc1ccc(-c2nc(N3CCOCC3)nc(N3C4CCC3COC4)n2)cc1` [Example 760, 1-[4-(1,4′-bipiperidin-1′-ylcarbonyl)phenyl]-3-{4-[4-morpholin-4-yl-6-(3-oxa-8-azabicyclo[3.2.1]oct-8-yl)-1,3,5-triazin-2-yl]phenyl}urea], the half-inhibitory concentration (IC50) at Human mTOR (FLAG-TOR) was determined as 0.00021 µM; in experiment [2] (Homo sapiens, PC3MM2, 72 h, MTS cell growth assay, three days after drug treatment, PC3-mm2 cells), 0.004 µM; at PI3K-γ, 0.0283 µM; on PI3K-α, 0.0043 µM.

Take `O=C(Nc1ccncc1)Nc1ccc(-c2nc(N3CCOCC3)nc(N3CC4CCC3CO4)n2)cc1` (stereo not shown) [Example 807, 1-{4-[4-morpholin-4-yl-6-(2-oxa-5-azabicyclo[2.2.2]oct-5-yl)-1,3,5-triazin-2-yl]phenyl}-3-pyridin-4-ylurea]: the IC50 stood at 0.035 µM in experiment [1] (Homo sapiens, 72 h, MDA-MB-361 cells, MTS, three days after drug treatment) and 0.037 µM in experiment [2] (setting [7]).

`CN1CCN(C(=O)c2ccc(NC(=O)Nc3ccc(-c4nc(N5CCOCC5)[nH]c(=O)n4)cc3)cc2)CC1` [Example 826, 1-{4-[(4-methylpiperazin-1-yl)carbonyl]phenyl}-3-[4-(6-morpholin-4-yl-4-oxo-4,5-dihydro-1,3,5-triazin-2-yl)phenyl]urea]: the IC50 is greater than 1 µM in experiment [1] (Homo sapiens, MDA-MB-361, 72 h); greater than 1 µM in experiment [2] (setting [7]); 0.015 µM at PI3K-α.

Regarding “N-[2-(dimethylamino)ethyl]-4-({[4-(4-morpholin-4-yl-6-piperidin-1-yl-1,3,5-triazin-2-yl)phenyl]carbamoyl}amino)benzamide [Example 601]”, the half-inhibitory concentration (IC50) is 0.003 µM at Human mTOR (FLAG-TOR), 0.155 µM in experiment [2] (setting [5]), 0.0575 µM at PI3K-γ and 0.0035 µM at PI3K-α.

Broadly, the IC50 is the midpoint of a concentration-inhibition curve.
